Article PMC5862592, “CDK8/19 inhibition induces premature G1/S transition and ATR-dependent cell death in prostate cancer cells” (Oncotarget, 2018)
Where two headings read alike, the source gives them in different places.

Assays:
Assay in all cases: biochemical
Set-up in all cases: KINOMEscan active site-directed competition binding assay (DiscoveRx), 456 kinases, per cent of control at 300 nM
Conditions in all cases: read-out: Percent of Control (%)
LYN = LYN (Homo sapiens, UniProt P07948)
How it was run: (§1)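 Kinase panel (456 enzymes) profiled by competitive displacement at the active site; compounds run at 300 nmol/L.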

BMPR1B = BMPR1B (Homo sapiens, UniProt O00238)
How it was run: as §1

MYO3A = MYO3A (Homo sapiens, UniProt Q8NEV4)
How it was run: as §1

KIT(V559D,T670I) = KIT(V559D,T670I) (Homo sapiens, UniProt P10721, T670I/V559D)
How it was run: as §1

EIF2AK1 = EIF2AK1 (Homo sapiens, UniProt Q9BQI3)
How it was run: as §1

STK16 = STK16 (Homo sapiens, UniProt O75716)
How it was run: as §1

AAK1 = AAK1 (Homo sapiens, UniProt Q2M2I8)
How it was run: as §1

CAMK2B = CAMK2B (Homo sapiens, UniProt Q13554)
How it was run: as §1

PIK3CA(E542K) = PIK3CA(E542K) (Homo sapiens, UniProt P42336, E542K)
How it was run: as §1

NEK5 = NEK5 (Homo sapiens, UniProt Q6P3R8)
How it was run: as §1

TNIK = TNIK (Homo sapiens, UniProt Q9UKE5)
How it was run: as §1

PAK6 = PAK6 (Homo sapiens, UniProt Q9NQU5)
How it was run: as §1

DYRK2 = DYRK2 (Homo sapiens, UniProt Q92630)
How it was run: as §1

FER = FER (Homo sapiens, UniProt P16591)
How it was run: as §1

TRKC = target: T1, TRKC (Homo sapiens, UniProt Q16288)
T1 construct: gene NTRK3
How it was run: as §1

[1] = target: T2, RSK4(Kin.Dom.1-N-terminal) (Homo sapiens, UniProt Q9UK32)
T2 construct: gene RPS6KA6; Kin.Dom.1-N-terminal
How it was run: as §1

NEK2 = NEK2 (Homo sapiens, UniProt P51955)
How it was run: as §1

STK39 = STK39 (Homo sapiens, UniProt Q9UEW8)
How it was run: as §1

DAPK1 = DAPK1 (Homo sapiens, UniProt P53355)
How it was run: as §1

IRAK1 = IRAK1 (Homo sapiens, UniProt P51617)
How it was run: as §1

MEK2 = target: T3, MEK2 (Homo sapiens, UniProt P36507)
T3 construct: gene MAP2K2
How it was run: as §1

RIPK4 = RIPK4 (Homo sapiens, UniProt P57078)
How it was run: as §1

Chain of PIK3CA(E542K) (P42336 whole entry E542K): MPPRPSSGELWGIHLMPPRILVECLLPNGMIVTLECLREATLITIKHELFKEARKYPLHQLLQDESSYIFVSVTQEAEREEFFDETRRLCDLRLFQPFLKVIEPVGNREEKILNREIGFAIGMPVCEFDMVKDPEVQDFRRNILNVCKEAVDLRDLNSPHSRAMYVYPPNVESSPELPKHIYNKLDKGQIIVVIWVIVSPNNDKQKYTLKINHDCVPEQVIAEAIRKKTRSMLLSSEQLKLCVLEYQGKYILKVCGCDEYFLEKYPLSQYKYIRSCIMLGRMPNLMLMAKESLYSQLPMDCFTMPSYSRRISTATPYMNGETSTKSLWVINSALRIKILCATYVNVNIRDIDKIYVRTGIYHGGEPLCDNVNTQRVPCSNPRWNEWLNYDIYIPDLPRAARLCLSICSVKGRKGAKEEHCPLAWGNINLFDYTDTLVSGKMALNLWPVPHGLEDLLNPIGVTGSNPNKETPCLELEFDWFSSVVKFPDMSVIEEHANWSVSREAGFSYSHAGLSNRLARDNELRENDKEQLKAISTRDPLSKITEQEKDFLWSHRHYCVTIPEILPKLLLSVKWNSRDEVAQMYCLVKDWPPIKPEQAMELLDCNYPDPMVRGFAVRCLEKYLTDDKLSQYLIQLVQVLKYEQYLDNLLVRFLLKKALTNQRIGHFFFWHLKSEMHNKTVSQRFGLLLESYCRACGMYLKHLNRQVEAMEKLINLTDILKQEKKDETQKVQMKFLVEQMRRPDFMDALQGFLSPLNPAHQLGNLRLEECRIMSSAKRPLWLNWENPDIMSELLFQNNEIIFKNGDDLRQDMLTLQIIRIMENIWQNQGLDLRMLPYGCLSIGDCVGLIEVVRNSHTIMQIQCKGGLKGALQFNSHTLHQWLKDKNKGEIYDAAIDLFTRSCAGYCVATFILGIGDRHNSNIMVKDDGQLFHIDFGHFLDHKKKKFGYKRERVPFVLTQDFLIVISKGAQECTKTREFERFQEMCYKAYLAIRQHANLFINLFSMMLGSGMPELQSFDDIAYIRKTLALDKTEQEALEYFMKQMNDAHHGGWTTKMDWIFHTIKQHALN
Chain of EIF2AK1 (Q9BQI3 whole entry): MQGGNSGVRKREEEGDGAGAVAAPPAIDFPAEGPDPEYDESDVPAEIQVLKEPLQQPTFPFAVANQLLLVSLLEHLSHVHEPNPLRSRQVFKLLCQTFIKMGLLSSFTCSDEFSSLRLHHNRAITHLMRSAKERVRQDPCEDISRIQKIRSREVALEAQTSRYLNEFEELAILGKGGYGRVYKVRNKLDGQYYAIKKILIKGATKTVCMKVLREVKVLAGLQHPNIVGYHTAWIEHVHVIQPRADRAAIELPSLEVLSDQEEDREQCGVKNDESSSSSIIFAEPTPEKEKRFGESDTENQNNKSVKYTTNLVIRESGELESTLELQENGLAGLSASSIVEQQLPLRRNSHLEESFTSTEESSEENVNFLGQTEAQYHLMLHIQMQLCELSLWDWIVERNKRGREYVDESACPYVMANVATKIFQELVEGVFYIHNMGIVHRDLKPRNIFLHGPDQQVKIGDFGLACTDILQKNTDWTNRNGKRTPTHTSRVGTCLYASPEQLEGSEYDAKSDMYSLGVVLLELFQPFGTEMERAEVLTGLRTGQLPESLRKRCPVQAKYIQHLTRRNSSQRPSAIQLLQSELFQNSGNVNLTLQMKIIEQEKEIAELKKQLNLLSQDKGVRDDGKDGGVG
T1 sequence (Q16288 whole entry): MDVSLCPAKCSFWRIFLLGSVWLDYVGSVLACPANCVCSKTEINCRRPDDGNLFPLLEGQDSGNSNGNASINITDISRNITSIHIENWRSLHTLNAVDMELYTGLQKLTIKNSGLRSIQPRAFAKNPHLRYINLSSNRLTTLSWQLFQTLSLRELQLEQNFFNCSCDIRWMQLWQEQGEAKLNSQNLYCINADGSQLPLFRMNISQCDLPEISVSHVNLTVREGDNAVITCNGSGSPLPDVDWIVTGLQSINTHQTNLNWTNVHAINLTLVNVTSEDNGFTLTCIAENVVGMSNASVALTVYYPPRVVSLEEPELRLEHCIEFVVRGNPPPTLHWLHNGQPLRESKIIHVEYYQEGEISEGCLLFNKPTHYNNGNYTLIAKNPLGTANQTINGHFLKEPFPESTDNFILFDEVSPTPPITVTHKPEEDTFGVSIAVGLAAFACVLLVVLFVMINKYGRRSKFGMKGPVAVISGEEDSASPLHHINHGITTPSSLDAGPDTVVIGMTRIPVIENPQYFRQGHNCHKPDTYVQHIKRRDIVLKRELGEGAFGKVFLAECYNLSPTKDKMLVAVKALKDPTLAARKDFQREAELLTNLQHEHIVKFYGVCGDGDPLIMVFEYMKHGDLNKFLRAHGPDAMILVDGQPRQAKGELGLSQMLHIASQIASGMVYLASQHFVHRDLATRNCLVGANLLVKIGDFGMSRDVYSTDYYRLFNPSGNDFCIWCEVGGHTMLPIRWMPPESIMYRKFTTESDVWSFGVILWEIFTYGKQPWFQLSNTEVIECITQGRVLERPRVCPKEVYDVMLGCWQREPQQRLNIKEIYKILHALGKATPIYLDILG
Chain of KIT(V559D,T670I) (P10721 whole entry V559D/T670I): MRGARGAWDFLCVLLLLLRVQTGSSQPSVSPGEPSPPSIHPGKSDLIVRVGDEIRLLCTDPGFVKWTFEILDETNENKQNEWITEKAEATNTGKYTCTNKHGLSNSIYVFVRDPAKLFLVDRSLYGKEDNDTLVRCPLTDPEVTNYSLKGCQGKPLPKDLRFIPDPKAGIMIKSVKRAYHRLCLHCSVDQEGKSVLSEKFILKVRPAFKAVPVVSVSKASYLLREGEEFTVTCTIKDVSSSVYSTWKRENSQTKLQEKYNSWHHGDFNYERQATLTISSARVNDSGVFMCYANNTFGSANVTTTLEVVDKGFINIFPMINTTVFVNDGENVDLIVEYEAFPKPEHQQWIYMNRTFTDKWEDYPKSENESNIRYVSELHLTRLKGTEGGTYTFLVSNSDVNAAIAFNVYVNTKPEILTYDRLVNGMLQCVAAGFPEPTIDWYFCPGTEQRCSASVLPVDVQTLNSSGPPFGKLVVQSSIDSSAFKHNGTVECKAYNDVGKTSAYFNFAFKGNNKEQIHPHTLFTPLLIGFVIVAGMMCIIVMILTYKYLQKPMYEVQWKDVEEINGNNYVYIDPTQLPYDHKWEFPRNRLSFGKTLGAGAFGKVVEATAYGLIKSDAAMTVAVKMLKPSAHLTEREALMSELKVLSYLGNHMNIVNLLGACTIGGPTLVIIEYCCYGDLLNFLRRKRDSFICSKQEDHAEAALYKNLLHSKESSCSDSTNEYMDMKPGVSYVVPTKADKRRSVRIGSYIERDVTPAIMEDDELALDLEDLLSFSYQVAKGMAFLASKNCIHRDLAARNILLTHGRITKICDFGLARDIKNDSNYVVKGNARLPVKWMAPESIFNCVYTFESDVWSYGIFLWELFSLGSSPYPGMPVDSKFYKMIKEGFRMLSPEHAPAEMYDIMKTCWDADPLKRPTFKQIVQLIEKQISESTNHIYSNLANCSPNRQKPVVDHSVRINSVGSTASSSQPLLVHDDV
Chain of IRAK1 (P51617 whole entry): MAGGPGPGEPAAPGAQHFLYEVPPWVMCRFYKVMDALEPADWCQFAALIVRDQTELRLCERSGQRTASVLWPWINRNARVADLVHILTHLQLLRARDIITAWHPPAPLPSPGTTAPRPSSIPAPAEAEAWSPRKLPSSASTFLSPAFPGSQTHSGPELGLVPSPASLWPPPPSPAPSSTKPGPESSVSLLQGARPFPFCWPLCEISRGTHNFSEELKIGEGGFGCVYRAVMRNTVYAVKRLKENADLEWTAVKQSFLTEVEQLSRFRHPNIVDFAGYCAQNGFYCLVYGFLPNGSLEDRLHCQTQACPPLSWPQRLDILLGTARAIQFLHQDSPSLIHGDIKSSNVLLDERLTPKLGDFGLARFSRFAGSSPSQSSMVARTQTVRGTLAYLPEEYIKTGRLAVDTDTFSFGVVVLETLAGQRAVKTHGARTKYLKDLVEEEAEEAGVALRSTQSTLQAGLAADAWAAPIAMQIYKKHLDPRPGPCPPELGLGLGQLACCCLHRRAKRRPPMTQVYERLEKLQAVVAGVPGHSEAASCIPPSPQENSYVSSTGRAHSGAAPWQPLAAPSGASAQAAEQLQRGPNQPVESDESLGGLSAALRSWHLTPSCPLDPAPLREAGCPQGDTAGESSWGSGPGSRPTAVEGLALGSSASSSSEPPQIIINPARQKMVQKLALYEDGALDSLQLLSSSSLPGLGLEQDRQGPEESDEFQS
Chain of RIPK4 (P57078 whole entry): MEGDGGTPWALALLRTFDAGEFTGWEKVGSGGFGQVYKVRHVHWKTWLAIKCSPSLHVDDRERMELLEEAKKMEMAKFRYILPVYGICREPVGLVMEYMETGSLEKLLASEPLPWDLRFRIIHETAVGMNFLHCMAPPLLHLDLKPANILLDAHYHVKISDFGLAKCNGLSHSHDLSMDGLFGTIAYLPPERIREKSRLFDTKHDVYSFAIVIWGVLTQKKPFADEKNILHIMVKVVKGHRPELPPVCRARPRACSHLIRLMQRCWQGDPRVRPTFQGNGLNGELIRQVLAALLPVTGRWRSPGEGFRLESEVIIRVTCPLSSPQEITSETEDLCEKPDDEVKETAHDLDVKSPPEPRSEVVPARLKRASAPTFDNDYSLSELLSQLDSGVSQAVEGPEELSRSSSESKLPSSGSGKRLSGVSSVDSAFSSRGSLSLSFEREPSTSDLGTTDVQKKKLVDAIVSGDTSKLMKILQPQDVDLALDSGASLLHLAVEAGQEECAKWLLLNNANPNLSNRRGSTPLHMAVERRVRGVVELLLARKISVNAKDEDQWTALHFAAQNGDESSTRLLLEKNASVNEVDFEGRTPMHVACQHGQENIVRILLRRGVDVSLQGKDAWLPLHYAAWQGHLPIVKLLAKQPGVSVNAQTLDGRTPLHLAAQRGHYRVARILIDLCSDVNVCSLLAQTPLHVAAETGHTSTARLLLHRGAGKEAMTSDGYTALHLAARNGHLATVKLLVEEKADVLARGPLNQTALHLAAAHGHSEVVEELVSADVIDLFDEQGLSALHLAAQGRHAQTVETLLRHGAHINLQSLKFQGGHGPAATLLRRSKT

Structure (SMILES): O=C(/C=C/c1cnccc1-c1ccc(F)cc1)Nc1ccc(CCc2nnco2)cc1 [T-418, (2E)-3-(4-(4-fluorophenyl)pyridin-3-yl)-N-(4-(2-(1,3,4-oxadiazol-2-yl)ethyl)phenyl)acrylamide]
- remaining binding at 0.3 µM (LYN; sheet T-418): 100%
- remaining binding at 0.3 µM (BMPR1B; sheet T-418): 100%
- remaining binding at 0.3 µM (MYO3A; sheet T-418): 100%
- remaining binding at 0.3 µM (KIT(V559D,T670I); sheet T-418): 77%
- remaining binding at 0.3 µM (EIF2AK1; sheet T-418): 100%
- remaining binding at 0.3 µM (STK16; sheet T-418): 86%
- remaining binding at 0.3 µM (AAK1; sheet T-418): 83%
- remaining binding at 0.3 µM (CAMK2B; sheet T-418): 84%
- remaining binding at 0.3 µM (PIK3CA(E542K); sheet T-418): 100%
- remaining binding at 0.3 µM (NEK5; sheet T-418): 100%
- remaining binding at 0.3 µM (TNIK; sheet T-418): 100%
- remaining binding at 0.3 µM (PAK6; sheet T-418): 85%
- remaining binding at 0.3 µM (DYRK2; sheet T-418): 100%
- remaining binding at 0.3 µM (FER; sheet T-418): 98%
- remaining binding at 0.3 µM (TRKC; sheet T-418): 82%
- remaining binding at 0.3 µM ([1]; sheet T-418): 100%
- remaining binding at 0.3 µM (NEK2; sheet T-418): 100%
- remaining binding at 0.3 µM (STK39; sheet T-418): 100%
- remaining binding at 0.3 µM (DAPK1; sheet T-418): 100%
- remaining binding at 0.3 µM (IRAK1; sheet T-418): 100%
- remaining binding at 0.3 µM (MEK2; sheet T-418): 100%
- remaining binding at 0.3 µM (RIPK4; sheet T-418): 100%

Structure (SMILES): Cc1ncccc1Oc1sc(C(N)=O)c2c1-c1c(cnn1C)CC2 [T-474, 1-methyl-8-((2-methylpyridin-3-yl)oxy)-4,5-dihydro-1H-thieno[3,4-g]indazole-6-carboxamide]
- remaining binding at 0.3 µM (LYN): 100%
- remaining binding at 0.3 µM (BMPR1B): 100%
- remaining binding at 0.3 µM (MYO3A): 100%
- remaining binding at 0.3 µM (KIT(V559D,T670I)): 100%
- remaining binding at 0.3 µM (EIF2AK1): 100%
- remaining binding at 0.3 µM (STK16): 88%
- remaining binding at 0.3 µM (AAK1): 93%
- remaining binding at 0.3 µM (CAMK2B): 99%
- remaining binding at 0.3 µM (PIK3CA(E542K)): 100%
- remaining binding at 0.3 µM (NEK5): 100%
- remaining binding at 0.3 µM (TNIK): 100%
- remaining binding at 0.3 µM (PAK6): 89%
- remaining binding at 0.3 µM (DYRK2): 100%
- remaining binding at 0.3 µM (FER): 90%
- remaining binding at 0.3 µM (TRKC): 87%
- remaining binding at 0.3 µM [1]: 100%
- remaining binding at 0.3 µM (NEK2): 100%
- remaining binding at 0.3 µM (STK39): 100%
- remaining binding at 0.3 µM (DAPK1): 100%
- remaining binding at 0.3 µM (IRAK1): 100%
- remaining binding at 0.3 µM (MEK2): 100%
- remaining binding at 0.3 µM (RIPK4): 100%
